Reference: patent US9339034B2, “Use of thaxtomin for selective control of rice and aquatic based weeds” (MARRONE BIO INNOVATIONS, INC., priority 2009, dated 2016)

What was measured:
[1] = system: CYI; test: Greenhouse pot study, weed control; type: in vivo, Cyperus iria
[2] = system: EO2; test: Greenhouse pot study, weed control; type: in vivo, Echinochloa spp.
Source text: (§1) Moderate suppression (60%) was noted on Echinochloa colonum at 500 g a.i. per hectare.

[3] = system: CPD; test: Greenhouse pot study, weed control; type: in vivo, Cyperus difformis
Source text: as §1

[4] = system: Alisma plantago-aquatica; test: Pot study, spray of pure thaxtomin A solutions, % control; type: in vivo, common waterplantain; Alisma plantago-aquatica; conditions: for % control: Alisma plantago-aquatica
Experimental: (§2) A pot study was conducted to test the phytotoxicity of thaxtomin A on broadleaved, sedge and grass weeds. Seeds of two most common broadleaf (redstem; Ammannia spp. and common waterplantain; Alisma plantago-aquatica), sedge (smallflower umbrella sedge; Cyperus diiformis) and grass (sprangletop: Leptochloa uninervia) weeds each were planted in a plastic pots filled with heavy clay soil. The less than 1-inch tall plants grown under growth lights (12-h light/12-h dark) at 28° C. were sprayed with pure thaxtomin A solutions containing 0.05, 0.1, 0.2, and 0.4 mg thaxtomin A per mL of solvent (4% ethanol and 0.2% non-ionic surfactant). A solution of 4% ethanol+0.2% non-ionic surfactant without thaxtomin A was used as a control treatment. Same treatments were applied to three-inch tall rice plants grown submerged under growth lights at 28° C. […] All treatments were applied in three replicates. Treated plants were kept at 28° C. under growth lights and observed at three time points—5, 12 and 21 days after treatment—for visual symptoms of phytotoxicity and % control.

[5] = system: DSR (direct-seeded rice); test: Greenhouse pot study, effect on crop growth, direct-seeded rice; type: in vivo
[6] = system: MON; test: Greenhouse pot study, weed control; type: in vivo, Monorhoria vaginalis
[7] = system: MAQ; test: Greenhouse pot study, weed control; type: in vivo, Marsilea quadrifolia
Source text: (§3) The activity on susceptible and resistant biotypes of Scirpus mucronatus was somewhat weaker (70 to 75%) than that observed for other sedge weeds in this study.

[8] = system: transplanted rice; test: First study, crop safety; type: in vivo; conditions: all rates tested (64 to 1000 g a.i. per hectare)
[9] = system: AMM; test: Greenhouse pot study, weed control; type: in vivo, Ammania spp.
Source text: as §1

[10] = system: DSA; test: Greenhouse pot study, weed control; type: in vivo, Heteranthem limosa
[11] = system: Ammania sp; test: Pot study, spray of pure thaxtomin A solutions, % control; type: in vivo, redstem; Ammannia spp.
Experimental: as §2

[12] = system: WCN; test: Greenhouse pot study, weed control; type: in vivo, Eleocharis dulcis
Source text: as §3

[13] = system: LEF; test: Greenhouse pot study, weed control; type: in vivo
[14] = system: WPL; test: Greenhouse pot study, weed control; type: in vivo, Alisma-plamago aquatica
Source text: as §1

[15] = system: barnyardgrass; test: First study, weed control; type: in vivo; conditions: 500-1000 g a.i. per hectare
[16] = system: Cyperus sp; test: Pot study, spray of pure thaxtomin A solutions, % control; type: in vivo, smallflower umbrella sedge; Cyperus diiformis
Experimental: as §2

[17] = system: ECC; test: Greenhouse pot study, weed control; type: in vivo, Echinochloa colonum
Source text: as §1

[18] = system: Echinochloa colonum; test: First study, weed control; type: in vivo; conditions: 500-1000 g a.i. per hectare

CN1C(=O)[C@](O)(Cc2cccc(O)c2)N(C)C(=O)[C@@H]1Cc1c[nH]c2cccc([N+](=O)[O-])c12 [thaxtomin A]
% control ([1]; 64 g/ha): 45% | % control ([1]; 125 g/ha): 45% | % control ([1]; 250 g/ha): 95% | % control ([1]; 500 g/ha): 100% | % control ([1]; 1000 g/ha): 100% | % control ([2]; EO2, 64 g/ha): 0% | % control ([2]; EO2, 125 g/ha): 0% | % control ([2]; EO2, 250 g/ha): 20% | % control ([2]; EO2, 500 g/ha): 20% | % control ([2]; EO2, 1000 g/ha): 30% | % control ([3]; 64 g/ha): 0% | % control ([3]; 125 g/ha): 85% | % control ([3]; 250 g/ha): 100% | % control ([3]; 500 g/ha): 100% | % control ([3]; 1000 g/ha): 100% | control of common water plantain ([4]; 0.2 mg/ml): complete control | % control ([4]; 5 DAYS, 0.05 mg/mL in 4% ethanol): 8a % | % control ([4]; 5 DAYS, 0.1 mg/mL in 4% ethanol): 28ab % | % control ([4]; 5 DAYS, 0.2 mg/mL in 4% ethanol): 40b % | % control ([4]; 5 DAYS, 0.4 mg/mL in 4% ethanol): 62b % | % control ([4]; 12 DAYS, 0.05 mg/mL in 4% ethanol): 40b % | % control ([4]; 12 DAYS, 0.1 mg/mL in 4% ethanol): 43b % | % control ([4]; 12 DAYS, 0.2 mg/mL in 4% ethanol): 87c % | % control ([4]; 12 DAYS, 0.4 mg/mL in 4% ethanol): 87c % | % control ([4]; 21 DAYS, 0.05 mg/mL in 4% ethanol): 83b % | % control ([4]; 21 DAYS, 0.1 mg/mL in 4% ethanol): 70b % | % control ([4]; 21 DAYS, 0.2 mg/mL in 4% ethanol): 100c % | % control ([4]; 21 DAYS, 0.4 mg/mL in 4% ethanol): 98c % | effect on crop growth (rice) ([5]; 64 g/ha): 10% | effect on crop growth (rice) ([5]; 125 g/ha): 10% | effect on crop growth (rice) ([5]; 250 g/ha): 10% | effect on crop growth (rice) ([5]; 500 g/ha): 15% | effect on crop growth (rice) ([5]; 1000 g/ha): 40% | % control ([6]; 64 g/ha): 0% | % control ([6]; 125 g/ha): 100% | % control ([6]; 250 g/ha): 100% | % control ([6]; 500 g/ha): 100% | % control ([6]; 1000 g/ha): 100% | % control ([7]; 64 g/ha): 20% | % control ([7]; 125 g/ha): 25% | % control ([7]; 250 g/ha): 40% | % control ([7]; 500 g/ha): 70% | % control ([7]; 1000 g/ha): 85% | safety to transplanted rice [8]: complete safety | % control ([9]; 64 g/ha): 0% | % control ([9]; 125 g/ha): 30% | % control ([9]; 250 g/ha): 90% | % control ([9]; 500 g/ha): 100% | % control ([9]; 1000 g/ha): 100% | % control ([10]; 64 g/ha): 0% | % control ([10]; 125 g/ha): 100% | % control ([10]; 250 g/ha): 100% | % control ([10]; 500 g/ha): 100% | % control ([10]; 1000 g/ha): 100% | % control ([11]; Ammania sp, 5 DAYS, 0.05 mg/mL in 4% ethanol): 0% | % control ([11]; Ammania sp, 5 DAYS, 0.1 mg/mL in 4% ethanol): 0% | % control ([11]; Ammania sp, 5 DAYS, 0.2 mg/mL in 4% ethanol): 0% | % control ([11]; Ammania sp, 5 DAYS, 0.4 mg/mL in 4% ethanol): 0% | % control ([11]; Ammania sp, 12 DAYS, 0.05 mg/mL in 4% ethanol): 0a % | % control ([11]; Ammania sp, 12 DAYS, 0.1 mg/mL in 4% ethanol): 0a % | % control ([11]; Ammania sp, 12 DAYS, 0.2 mg/mL in 4% ethanol): 0a % | % control ([11]; Ammania sp, 12 DAYS, 0.4 mg/mL in 4% ethanol): 3b % | % control ([11]; Ammania sp, 21 DAYS, 0.05 mg/mL in 4% ethanol): 63b % | % control ([11]; Ammania sp, 21 DAYS, 0.1 mg/mL in 4% ethanol): 53b % | % control ([11]; Ammania sp, 21 DAYS, 0.2 mg/mL in 4% ethanol): 70b % | % control ([11]; Ammania sp, 21 DAYS, 0.4 mg/mL in 4% ethanol): 75b % | % control ([11]; red stem (Ammania sp.), highest concentration (0.4 mg/mL)): 75-80% | % control ([12]; 125 g/ha): 35% | % control ([12]; 250 g/ha): 85% | % control ([12]; 500 g/ha): 85% | % control ([12]; 1000 g/ha): 95% | % control ([13]; 64 g/ha): 0% | % control ([13]; 125 g/ha): 50% | % control ([13]; 250 g/ha): 60% | % control ([13]; 500 g/ha): 70% | % control ([13]; 1000 g/ha): 100% | % control ([14]; 64 g/ha): 0% | % control ([14]; 125 g/ha): 70% | % control ([14]; 250 g/ha): 95% | % control ([14]; 500 g/ha): 100% | % control ([14]; 1000 g/ha): 100% | activity on barnyardgrass [15]: moderate activity | % control ([16]; Cyperus sp, 5 DAYS, 0.05 mg/mL in 4% ethanol): 5a % | % control ([16]; Cyperus sp, 5 DAYS, 0.1 mg/mL in 4% ethanol): 12a % | % control ([16]; Cyperus sp, 5 DAYS, 0.2 mg/mL in 4% ethanol): 16a % | % control ([16]; Cyperus sp, 5 DAYS, 0.4 mg/mL in 4% ethanol): 25a % | % control ([16]; Cyperus sp, 12 DAYS, 0.05 mg/mL in 4% ethanol): 15a % | % control ([16]; Cyperus sp, 12 DAYS, 0.1 mg/mL in 4% ethanol): 75b % | % control ([16]; Cyperus sp, 12 DAYS, 0.2 mg/mL in 4% ethanol): 77b % | % control ([16]; Cyperus sp, 12 DAYS, 0.4 mg/mL in 4% ethanol): 73b % | % control ([16]; Cyperus sp, 21 DAYS, 0.05 mg/mL in 4% ethanol): 53b % | % control ([16]; Cyperus sp, 21 DAYS, 0.1 mg/mL in 4% ethanol): 90c % | % control ([16]; Cyperus sp, 21 DAYS, 0.2 mg/mL in 4% ethanol): 88c % | % control ([16]; Cyperus sp, 21 DAYS, 0.4 mg/mL in 4% ethanol): 83c % | % control ([16]; sedge (Cyperus difformis), highest concentration (0.4 mg/mL)): 75-80% | % control ([17]; 64 g/ha): 0% | % control ([17]; 125 g/ha): 0% | % control ([17]; 250 g/ha): 35% | % control ([17]; 500 g/ha): 60% | % control ([17]; 1000 g/ha): 60% | % control [18]: 90-100%
